The supplement of paper PMC10307832

Columns and labels:
Test in all cases: relative viability (nuclei count vs DMSO), 5 days (fraction); higher = more cells survive
4EGI-1 + OSI-027 = compound: O=C(O)C(Cc1ccccc1[N+](=O)[O-])=NNc1nc(-c2ccc(Cl)c(Cl)c2)cs1 (mixture of isomers) [4EGI-1] + COc1cccc2cc(-c3nc([C@H]4CC[C@H](C(=O)O)CC4)n4ncnc(N)c34)[nH]c12 [OSI-027] (partner 0.5 µM)
Method in brief: (§1)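 Medians of duplicate plates are given as relative viability. That measure is the nuclei count in treated wells divided by the count in vehicle wells. Counts were taken on 4× images of lung cancer cell lines in 1536-well plates, 5 days after pin-tool dosing the day after seeding with one drug alone or a fixed anchor-drug dose plus five library-drug doses (not always all listed) in √10 steps.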

XMD8-85 + Luminespib = compound: CN1CCN(CC1)C2=CC(=C(C=C2)NC3=NC=C4C(=N3)N(C5=CC=CC=C5C(=O)N4C)C)OC [XMD8-85] + CCNC(=O)c1noc(-c2cc(C(C)C)c(O)cc2O)c1-c1ccc(CN2CCOCC2)cc1 [Luminespib] (partner 0.01 µM)
Method in brief: as §1

XMD8-85 + Pictilisib = compound: CN1CCN(CC1)C2=CC(=C(C=C2)NC3=NC=C4C(=N3)N(C5=CC=CC=C5C(=O)N4C)C)OC [XMD8-85] + CS(=O)(=O)N1CCN(Cc2cc3nc(-c4cccc5[nH]ncc45)nc(N4CCOCC4)c3s2)CC1 [Pictilisib] (partner 1 µM)
Method in brief: as §1

4EGI-1 + AZD7762 = compound: O=C(O)C(Cc1ccccc1[N+](=O)[O-])=NNc1nc(-c2ccc(Cl)c(Cl)c2)cs1 (mixture of isomers) [4EGI-1] + NC(=O)Nc1cc(-c2cccc(F)c2)sc1C(=O)N[C@H]1CCCNC1 [AZD7762] (partner 0.2 µM)
Method in brief: as §1

Row | Cell Line | relative viability (4EGI-1 + OSI-027; first compound 0.5 µM) | relative viability (4EGI-1 + OSI-027; first compound 1.581 µM) | relative viability (4EGI-1 + OSI-027; first compound 5 µM) | relative viability (4EGI-1 + OSI-027; first compound 15.81 µM) | relative viability (4EGI-1 + OSI-027; first compound 50 µM) | relative viability (XMD8-85 + Luminespib; first compound 0.08 µM) | relative viability (XMD8-85 + Luminespib; first compound 0.253 µM) | relative viability (XMD8-85 + Luminespib; first compound 0.8 µM) | relative viability (XMD8-85 + Luminespib; first compound 2.53 µM) | relative viability (XMD8-85 + Luminespib; first compound 8 µM) | relative viability (XMD8-85 + Pictilisib; first compound 0.08 µM) | relative viability (XMD8-85 + Pictilisib; first compound 0.253 µM) | relative viability (XMD8-85 + Pictilisib; first compound 0.8 µM) | relative viability (XMD8-85 + Pictilisib; first compound 2.53 µM) | relative viability (XMD8-85 + Pictilisib; first compound 8 µM) | relative viability (4EGI-1 + AZD7762; first compound 0.5 µM) | relative viability (4EGI-1 + AZD7762; first compound 1.581 µM) | relative viability (4EGI-1 + AZD7762; first compound 5 µM) | relative viability (4EGI-1 + AZD7762; first compound 15.81 µM) | relative viability (4EGI-1 + AZD7762; first compound 50 µM)
1 | NCI-H727 | 0.669 | 0.652 | 0.538 | 0.552 | 0.451 | 0.431 | 0.527 | 0.359 | 0.322 | 0.344 | 0.373 | 0.387 | 0.342 | 0.433 | 0.327 | 0.631 | 0.631 | 0.511 | 0.519 | 0.478
2 | LCLC-103H | 0.479 | 0.469 | 0.482 | 0.471 | 0.333 | 0.96 | 0.941 | 0.864 | 1.12 | 0.704 | 0.606 | 0.615 | 0.66 | 0.598 | 0.462 | 0.868 | 0.727 | 0.788 | 0.756 | 0.446
3 | ABC-1 | 0.642 | 0.357 | 0.455 | 0.313 | 0.218 |  |  | 0.793 | 0.703 | 0.373 | 0.628 | 0.614 | 0.942 | 0.746 |  | 0.758 |  | 0.774 | 0.506 | 0.516
4 | NCI-H3122 | 1.27 |  | 1.04 | 0.862 | 0.235 | 0.117 |  | 0.115 | 0.106 | 0.102 | 0.687 | 0.573 | 0.649 | 0.646 | 0.611 | 1.01 | 0.972 | 0.957 | 0.926 | 0.48
5 | NCI-H1648 | 0.254 | 0.26 | 0.252 | 0.302 | 0.213 |  |  |  |  |  |  |  |  |  |  | 0.662 | 0.674 | 0.707 | 0.602 | 0.517
6 | NCI-H1703 |  |  |  |  |  |  |  |  |  |  | 0.236 | 0.234 | 0.269 | 0.229 | 0.196 | 0.121 | 0.131 | 0.147 | 0.12 | 0.119
7 | HOP-62 | 0.878 | 0.585 | 0.839 | 0.746 | 0.483 | 0.932 |  | 0.911 | 0.762 | 0.683 | 0.734 | 0.723 | 0.858 | 0.559 | 0.232 | 0.878 | 0.408 | 0.54 | 0.454 | 0.101
8 | NCI-H2405 | 0.679 | 0.557 | 0.677 | 0.698 | 0.693 | 0.63 | 0.727 | 0.625 | 0.704 | 0.643 | 0.388 | 0.528 | 0.402 | 0.373 | 0.303 | 0.746 |  | 0.851 | 0.692 | 0.285
9 | LXF-289 | 0.825 | 0.809 | 0.758 | 0.756 | 0.519 | 0.611 | 0.57 | 0.584 |  | 0.4 | 0.682 |  | 0.82 | 0.874 | 0.781 | 1.05 | 1.1 | 1.06 | 1.04 | 0.545
10 | NCI-H1355 | 0.397 | 0.354 | 0.384 | 0.291 | 0.264 | 0.528 | 0.747 | 0.697 | 0.642 | 0.6 | 0.458 | 0.41 | 0.485 | 0.449 | 0.33 | 0.865 | 0.69 | 0.801 | 0.769 | 0.27
11 | NCI-H596 | 0.844 | 0.579 | 0.905 | 0.62 | 0.518 | 0.885 | 1.02 |  | 0.875 | 0.605 | 0.392 | 0.396 | 0.359 | 0.397 | 0.354 | 1.07 | 1.21 | 1.31 | 0.769 | 0.279
12 | NCI-H1975 | 0.837 | 0.665 | 0.792 | 0.74 | 0.391 | 0.398 | 0.188 | 0.207 | 0.236 | 0.152 | 0.322 | 0.257 | 0.267 | 0.29 | 0.242 | 0.837 | 0.539 | 0.717 | 0.67 | 0.557
13 | H3255 | 0.655 | 0.564 | 0.611 | 0.448 | 0.578 | 1.03 | 0.829 | 0.816 | 0.889 | 0.707 | 0.565 | 0.465 |  | 0.531 | 0.414 | 1.02 | 0.793 | 0.981 | 0.554 | 0.53
14 | COR-L 105 | 0.937 | 0.572 | 0.718 | 0.434 | 0.535 | 0.99 | 0.842 | 0.645 |  | 0.272 | 0.429 | 0.415 | 0.359 | 0.353 | 0.303 |  |  |  |  | 
15 | EBC-1 |  |  |  |  |  |  |  |  |  |  | 0.383 | 0.364 | 0.502 | 0.339 | 0.18 |  |  |  |  | 
16 | COR-L23 | 0.899 | 0.459 | 0.848 | 0.542 | 0.138 | 0.504 | 0.589 | 0.963 |  | 0.487 | 0.8 | 0.717 | 1.01 | 0.798 | 0.577 |  |  |  |  | 
17 | NCI-H1793 | 0.331 | 0.287 | 0.355 | 0.247 | 0.134 | 0.144 | 0.182 | 0.146 | 0.201 | 0.23 | 0.389 | 0.248 | 0.44 | 0.405 | 0.38 | 0.766 | 0.41 | 0.809 | 0.276 | 0.218
18 | NCI-H2085 | 0.837 | 0.777 | 0.704 | 0.378 | 0.428 | 0.412 | 0.513 | 0.403 | 0.348 | 0.302 | 0.378 | 0.427 | 0.467 | 0.436 | 0.445 | 1.1 | 1.02 | 0.969 | 0.736 | 0.655
19 | SW 900 | 0.72 |  | 0.586 | 0.46 | 0.207 | 0.164 | 0.195 | 0.175 | 0.165 | 0.152 |  |  |  |  |  | 0.833 | 0.583 | 0.574 | 0.377 | 0.173
